Measurements from US8785460B2, “Tricyclic compounds and use thereof” (Takeda Pharmaceutical Company Limited, priority 2008, dated 2014).

Tests used:
human CRF1 receptor = molecular target: T1, human CRF1 receptor (Homo sapiens, UniProt P34998); assay: Measurement of CRF Binding Inhibitory Rate (receptor binding experiment with 125I-CRF); details: human CRF1 receptor expressing CHO cellular membrane fraction, 50 pM 125I-CRF, room temperature 1.5 hr, 0.05 nM to 10 μM of compound; read-out: IC50 values (CRF binding inhibition)
T1 construct: expressed in transfected cells; host or cells: CHO cells (membrane fraction)
T1 sequence (P34998 24-415): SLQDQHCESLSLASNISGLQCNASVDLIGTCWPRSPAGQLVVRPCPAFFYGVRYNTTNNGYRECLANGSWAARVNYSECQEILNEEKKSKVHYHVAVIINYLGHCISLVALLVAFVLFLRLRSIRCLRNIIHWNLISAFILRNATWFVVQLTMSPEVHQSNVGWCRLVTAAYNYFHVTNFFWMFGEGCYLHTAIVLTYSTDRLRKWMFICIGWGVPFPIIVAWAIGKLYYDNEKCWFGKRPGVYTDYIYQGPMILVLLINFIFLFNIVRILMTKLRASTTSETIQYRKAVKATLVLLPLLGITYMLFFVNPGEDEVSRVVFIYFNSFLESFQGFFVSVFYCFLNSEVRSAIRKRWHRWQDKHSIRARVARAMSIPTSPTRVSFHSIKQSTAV

Row | SMILES | melting point [°C] | IC50 (human CRF1 receptor) [µM]
1 | CCC(NC(=O)OC)c1ccc(Cl)c2nc3n(c12)CCCN3c1c(Cl)cc(Cl)cc1Cl (stereo not drawn) [Example 410, Methyl {1-[9-chloro-1-(2,4,6-trichlorophenyl)-1,2,3,4-tetrahydropyrimido[1,2-a]benzimidazol-6-yl]propyl}carbamate] | 231 to 233 | < 1
2 | CCC(OC(C)=O)c1ccc(Cl)c2nc3n(c12)CCCN3c1ncc(Cl)cc1Cl (stereo not drawn) [Example 171, 1-[9-Chloro-1-(3,5-dichloropyridin-2-yl)-1,2,3,4-tetrahydropyrimido[1,2-a]benzimidazol-6-yl]propyl acetate] | 157 to 159 | < 1
3 | CCN(CC)c1ccc(F)c2nc3n(c12)CCCN3c1ccc(Cl)cc1Cl [Example 365, 1-(2,4-Dichlorophenyl)-N,N-diethyl-9-fluoro-1,2,3,4-tetrahydropyrimido[1,2-a]benzimidazol-6-amine] | 170 to 172 | < 1
4 | CCC(CC)c1ccc(Cl)c2nc3n(c12)CCCCN3c1ccc(SC)cc1C [Example 44, 10-Chloro-7-(1-ethylpropyl)-1-[2-methyl-4-(methylthio)phenyl]-2,3,4,5-tetrahydro-1H-[1,3]diazepino[1,2-a]benzimidazole] | 113 to 115 | < 1
5 | CC(C)(O)c1ccc(Cl)c2nc3n(c12)CCCN3c1ccc(Cl)cc1Cl [Example 106, 2-[9-Chloro-1-(2,4-dichlorophenyl)-1,2,3,4-tetrahydropyrimido[1,2-a]benzimidazol-6-yl]propan-2-ol] | 216 to 218 | < 1
6 | CCC(CC)c1ccc(Cl)c2nc3n(c12)CCCCN3c1ncc(N(C)C)cc1C [Example 66, 6-[10-Chloro-7-(1-ethylpropyl)-2,3,4,5-tetrahydro-1H-[1,3]diazepino[1,2-a]benzimidazol-1-yl]-N,N,5-trimethylpyridin-3-amine] | 188 to 190 | < 1
7 | CCC(c1ccc(Cl)c2nc3n(c12)CCCN3c1ccc(Cl)cc1Cl)S(=O)(=O)CC (stereo not drawn) [Example 462] | 278 to 280 | < 1
8 | CCC(OC1CC1)c1ccc(Cl)c2nc3n(c12)CCCN3c1ccc(Cl)cc1Cl (stereo not drawn) [Example 306, 9-Chloro-6-[1-(cyclopropyloxy)propyl]-1-(2,4-dichlorophenyl)-1,2,3,4-tetrahydropyrimido[1,2-a]benzimidazole] | 147 to 149 | < 1
9 | CCC(OC(C)=O)c1ccc(Cl)c2nc3n(c12)CCCN3c1ccc(C(C)(C)O)cc1Cl (stereo not drawn) [Example 252, 1-{9-Chloro-1-[2-chloro-4-(1-hydroxy-1-methylethyl)phenyl]-1,2,3,4-tetrahydropyrimido[1,2-a]benzimidazol-6-yl}propyl acetate] | 184 to 186 | < 1
10 | CCC(CC)c1ccc(Cl)c2nc3n(c12)CCCCN3c1ncc(Cl)cc1Cl [Example 62, 10-Chloro-1-(3,5-dichloropyridin-2-yl)-7-(1-ethylpropyl)-2,3,4,5-tetrahydro-1H-[1,3]diazepino[1,2-a]benzimidazole] | 175 to 176 | < 1
11 | CCC(=O)OC(CC)c1ccc(Cl)c2nc3n(c12)CCCN3c1ccc(Cl)cc1Cl (stereo not drawn) [Example 241, 1-[9-Chloro-1-(2,4-dichlorophenyl)-1,2,3,4-tetrahydropyrimido[1,2-a]benzimidazol-6-yl]propyl propanoate] | 133 to 135 | < 1
12 | Cc1cc(C#N)ccc1N1CCCn2c1nc1c(Cl)ccc(C(OCC(F)(F)F)C3CC3)c12 (stereo not drawn) [Example 402, 4-{9-Chloro-6-[cyclopropyl(2,2,2-trifluoroethoxy)methyl]-3,4-dihydropyrimido[1,2-a]benzimidazol-1(2H)-yl}-3-methylbenzonitrile] | 207 to 209 | < 1
